Tests used:
[1] = molecular target: T1, hM1 (Homo sapiens, UniProt P11229); type: cell-based; conditions: for hM1 antagonist activity in words: SAR discussion of Table 1 analogs; for change in hM1 antagonist potency relative to a comparator compound: fold change in words
T1 sequence (P11229 1-460): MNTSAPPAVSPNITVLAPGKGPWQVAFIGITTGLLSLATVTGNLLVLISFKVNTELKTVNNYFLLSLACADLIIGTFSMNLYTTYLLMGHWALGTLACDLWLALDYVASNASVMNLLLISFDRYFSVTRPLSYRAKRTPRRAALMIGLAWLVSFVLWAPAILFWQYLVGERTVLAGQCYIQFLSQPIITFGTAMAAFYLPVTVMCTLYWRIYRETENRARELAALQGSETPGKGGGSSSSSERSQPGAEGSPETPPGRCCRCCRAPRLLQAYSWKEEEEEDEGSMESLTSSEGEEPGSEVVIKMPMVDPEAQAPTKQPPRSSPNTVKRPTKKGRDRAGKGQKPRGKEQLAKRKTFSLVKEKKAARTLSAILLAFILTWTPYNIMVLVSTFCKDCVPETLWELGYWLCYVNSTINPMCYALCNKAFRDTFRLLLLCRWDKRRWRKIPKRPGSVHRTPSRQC

[2] = molecular target: T1, hM1; experiment: [3H]NMS radioligand displacement at hM1 under equilibrium conditions; type: binding
[3] = molecular target: T2, M1 (Homo sapiens, UniProt P11229); experiment: Schild analysis, calcium mobilization in M1-expressing CHO cells; type: cell-based; conditions: for Schild regression slope: antagonism of ACh, mean ± S.E.M. of three experiments in triplicate; for mode of antagonism of M1 response to ACh: calcium mobilization assay
T2 sequence (P11229 1-460): T1 sequence (P11229 1-460)

| Structure (SMILES) | hM1 antagonist activity in words [1] | change in hM1 antagonist potency relative to a comparator compound [1] | also measured |
| --- | --- | --- | --- |
| CN1CCN(C(=O)[C@@](F)(Cc2ccccc2)c2ccccc2)CC1 (single isomer, unassigned) [Compound 8f] | – | – | selectivity for hM1 ([1]; against hM1-5, calcium mobilization assay): modest selectivity for hM1; displacement of radiolabeled NMS [2]: completely displace radiolabeled NMS; Schild regression slope [3]: 1.07 ± 0.02; mode of antagonism of M1 response to ACh [3]: competitively antagonizes M1 response to ACh in a concentration-dependent manner |
| CN1CCN(C(=O)C(Cc2ccccc2)c2ccccc2)CC1 (centres unmarked) [Compound 4] | – | roughly fourfold improvement in antagonist potency | – |
| CCN1CCN(C(=O)C(Cc2ccccc2)c2ccccc2)CC1 (centres unmarked) [Compound 5a] | – | sixfold drop in potency | – |
| CC(C)N1CCN(C(=O)C(Cc2ccccc2)c2ccccc2)CC1 (centres unmarked) [Compound 5b] | – | only a minor potency decrease | – |
| CC(C)CN1CCN(C(=O)C(Cc2ccccc2)c2ccccc2)CC1 (centres unmarked) [Compound 5c] | nearly abolished antagonist activity | – | – |
| O=C(C(Cc1ccccc1)c1ccccc1)N1CCNCC1 (centres unmarked) [Compound 5d] | loss of activity | – | – |
| CCN1CCN(C(=O)C(Cc2ccccc2)c2ccccc2)CC1C (centres unmarked) [Compound 5f] | – | increase potency roughly sixfold | – |
| CCN1CCN(C(=O)C(Cc2ccccc2)c2ccccc2)CC1(C)C (centres unmarked) [Compound 5g] | – | increase potency roughly sixfold | – |
| C[N+]1(C)CCN(C(=O)C(Cc2ccccc2)c2ccccc2)CC1 (centres unmarked) [Compound 5h] | only modest activity | – | – |
| CN(C)CCNC(=O)C(Cc1ccccc1)c1ccccc1 (centres unmarked) [Compound 5m] | large losses in potency | – | – |
| CN(C)CCN(C)C(=O)C(Cc1ccccc1)c1ccccc1 (centres unmarked) [Compound 5n] | large losses in potency | – | – |
| COCCN1CCN(C(=O)C(Cc2ccccc2)c2ccccc2)CC1 (centres unmarked) [Compound 5r] | significant drop in potency | – | – |

Continued, in another order:

| hM1 antagonist activity in words [1] | change in hM1 antagonist potency relative to a comparator compound [1] | Structure (SMILES) | also measured |
| --- | --- | --- | --- |
| moderate improvement in potency | – | CN1CCN(C(=O)[C@H](Cc2ccccc2)c2ccccc2)CC1 (single isomer, unassigned) [Compound 6] | displacement of radiolabeled NMS [2]: completely displace radiolabeled NMS; Schild regression slope [3]: 0.97 ± 0.02; mode of antagonism of M1 response to ACh [3]: competitively antagonizes M1 response to ACh in a concentration-dependent manner |
| minimal antagonist activity | – | O=C(C(Cc1ccccc1)c1ccccc1)N1CCN(c2ccncc2)CC1 (centres unmarked) [Compound 5s] | – |
| complete loss of activity | – | O=C(C(Cc1ccccc1)c1ccccc1)N1CCN(CC(F)(F)F)CC1 (centres unmarked) [Compound 5t] | – |
| – | only a twofold decrease in potency | CN1CCCN(C(=O)C(Cc2ccccc2)c2ccccc2)CC1 (centres unmarked) [Compound 5u] | – |
| – | roughly equipotent with 4 | CCN1CCCN(C(=O)C(Cc2ccccc2)c2ccccc2)CC1 (centres unmarked) [Compound 5v] | – |
| retained moderate potency | – | CC(C)N1CCCN(C(=O)C(Cc2ccccc2)c2ccccc2)CC1 (centres unmarked) [Compound 5w] | – |
| retained moderate potency | – | O=C(C(Cc1ccccc1)c1ccccc1)N1CC[C@H]2CCCN2CC1 (some centres unmarked) [Compound 5y] | – |
| nearly complete loss of activity | – | O=C(C(Cc1ccccc1)c1ccccc1)N1CCCNCC1 (centres unmarked) [Compound 5z] | – |

Source: paper PMC3897205 (Bioorganic & medicinal chemistry letters, 2012)
